From patent publication EP1006112A1, “3-Hydroxy-2(1H)-pyridinone or 3-hydroxy-4(1H)-pyridinone derivatives useful as reactive oxygen species (ROS) scavengers” (Cerebrus Pharmaceuticals Limited, priority 1998, dated 2000)
Counter-ions that a name gives are not always drawn.

Key:
[1] = test system: Lipid peroxidation in rat brain homogenates; assay: Lipid peroxidation assay (ascorbic acid-induced, TBA/MDA readout); assay type: biochemical; settings: concentration required to inhibit lipid peroxidation by 50%; rat cortex preparation, 500-µM L-ascorbic acid, 37 °C, 30 min
Experimental: Lipid peroxidation in rat brain homogenates is a general procedure used to measure the antioxidant capacity of molecules in a biological environment (Das N.P. and Ratty A.K., Biochem. Med. Metab. Biol, 1987, 37, 256-264).
Rat cortex was homogenised in 20 vols. of ice cold 0.32-M sucrose and centrifuged at 1,000 g for 10 min. The pellet was discarded whilst the resulting supernatant was centrifuged at 15,000 g for 20 min at 4 °C to yield p2 pellets. The pellet was re-suspended in ice-cold 50.0-mM phosphate buffer and centrifuged at 30,000 g for 20 min at 4 °C. The pellet was re-suspended in 30 vols. of 50.0-mM phosphate buffer and used immediately in the assay.
Assays contained 500-µM L-ascorbic acid to induce lipid peroxidation, plus various concentrations of test compound, with the tissue preparation in a total volume of 500 µL. This was incubated at 37 °C for 30 min. Lipid peroxidation was measured by adding to the reaction mixture, 300 µL 40 % (w/v) trichloroacetic acid, 150 µL 5.0-M HCl and 300 µL 2 % (w/v) 2-thiobarbituric acid (TBA). […] The pink colour of the supernatant was assessed spectrophotometrically at a wavelength of 532 nm. The amount of malondialdehyde (MDA) in the samples was calculated using a standard curve prepared with malondialdehyde tetrabutylammonium salt (Das, N.P. and Ratty, A.K. Biochem. Med. Metab. Biol. (1987), 37, 256-264). […]

[2] = test system: cerebellar granule cell (CGC) cultures; assay: Iodoacetate induced cell toxicity in culture (cell death, MTT-reductase activity); assay type: cell-based; settings: protection of CGC after 30-µM IAA for 30 min (with 10-µM MK-801), 24 hour incubation with test compound
Experimental: After 6-8 days in culture, cerebellar granule cell (CGC) cultures in 96-well plates (250,000 cells per well) were prepared for hypoglycaemia. lodoacetate (IAA) was made up in a balanced salt solution (BSS) (NaCl, 154.0-mM; KCl, 5.6-mM; MgCl2, 1.0-mM; CaCl2, 2.5-mM; N-[2-hydroxyethyl]piperazine-N'-[2-ethanesulfonic acid] (HEPES), 10.0-mM; D-glucose, 5.6-mM; pH 7.4) and any neuroprotective agents were made up in pre-warmed tissue culture media and allowed to equilibrate in a controlled environment (5 % CO2, 95 % air). The assay was initiated by aspiration of the maintenance media, which was replaced by either BSS (control) or 30-µM IAA in BSS, both solutions containing 10-µM of the NMDA receptor antagonist MK-801. The exposure to IAA was for 30 min only at 37 °C, after which time the BSS was aspirated and replaced with fresh, pre-equilibriated maintenance media containing various concentrations of test compound. All conditions were performed at least in duplicate in each 96 well plate. The final volume for each well was always 200 µL. Following a 24 hour incubation, visual inspection of the cells was followed by quantification of neuronal cell death by measuring 3-[4,5-dimethylthiazol-2-yl]-2,5-diphenyltetrazolium bromide (MTT)-reductase activity as described previously (Malcolm et al., J. Neurochem. 1996, 66, 2350-2360).

IC50 [1] [µM] | SMILES | EC50 [2] [µM]
1.5 | COc1ccc2[nH]cc(CCNC(=O)CCn3ccc(=O)c(O)c3C)c2c1 [Example 1, 3-(1,4-Dihydro-3-hydroxy-2-methyl-4-oxo-1-pyridinyl)-N-(2-(5-methoxy-3-indolyl)ethyl)propanamide mesylate] | 4.9
2 | COc1ccc2[nH]cc(CCn3ccc(=O)c(O)c3C)c2c1 [Example 2, 3-Hydroxy-1-(2-(5-methoxy-3-indolyl)ethyl)-2-methyl-4(1H)-pyridinone] | 11.9
